Measurements published in patent publication US4335213A (priority 1979, dated 1982).

tested on: galactose oxidase; assay: Substrate specificity of galactose oxidase (quinoneimine colorimetric assay); conditions: not given

| SMILES | action of the enzyme on the substrate |
| --- | --- |
| O=C(CO)CO [dihydroxyacetone] | acts on |
| OC[C@H]1O[C@H](OC[C@H]2OC(O)[C@H](O)[C@@H](O)[C@@H]2O)[C@H](O)[C@@H](O)[C@H]1O (stereo partly drawn) [melibiose] | acts on |
| OC[C@H]1O[C@H](OC[C@H]2O[C@H](O[C@]3(CO)O[C@H](CO)[C@@H](O)[C@@H]3O)[C@H](O)[C@@H](O)[C@@H]2O)[C@H](O)[C@@H](O)[C@H]1O [raffinose] | acts on |

tested on: galactose oxidase; assay: not given; assay type: biochemical, Gibberella fujikuroi Y-530929; conditions: 25° C., pH 7.0

| SMILES | Inhibition rate [%] |
| --- | --- |
| O=[N+]([O-])[O-].[Ag+] [AgNO3] | 100 |
| NO [NH2 OH] | 100 |
| [N-]=[N+]=[N-].[Na+] [NaN3] | 94 |
| O=C(O)c1cc[c]([Hg][Cl])cc1 [PCMB, parachloromercurybenzoate] | 57 |

same assay, conditions: inhibitor 10^-3 M; 25° C., pH 7.0

| SMILES | Inhibition rate [%] |
| --- | --- |
| O=C(O)CN(CCN(CC(=O)O)CC(=O)O)CC(=O)O [EDTA, ethylenediaminetetraacetic acid] | 52 |
| c1cnc2c(c1)ccc1cccnc12 [o-phenanthroline] | 68 |
